The values below come from ChEMBL document CHEMBL5725458, “Histone deacetylase inhibitors and compositions and methods of use thereof” (2018).

This experiment concerns the target Histone deacetylase 4 (Homo sapiens, UniProt P56524). Briefly: HDAC4 Biochemical: The Class I HDAC activity of Class IIa Histone Deacetylase (HDAC) inhibitors was quantified by measuring the cellular histone deacetylase enzymatic activity using the fluorogenic substrate, Boc-Lys(Ac)-AMC. This was performed according to the procedure in Example 17, using Boc-Lys(Ac)-AMC substrate in place of Boc-Lys(TFA)-AMC.

Structures are written as SMILES.

Chain of Histone deacetylase 4 (P56524 whole entry): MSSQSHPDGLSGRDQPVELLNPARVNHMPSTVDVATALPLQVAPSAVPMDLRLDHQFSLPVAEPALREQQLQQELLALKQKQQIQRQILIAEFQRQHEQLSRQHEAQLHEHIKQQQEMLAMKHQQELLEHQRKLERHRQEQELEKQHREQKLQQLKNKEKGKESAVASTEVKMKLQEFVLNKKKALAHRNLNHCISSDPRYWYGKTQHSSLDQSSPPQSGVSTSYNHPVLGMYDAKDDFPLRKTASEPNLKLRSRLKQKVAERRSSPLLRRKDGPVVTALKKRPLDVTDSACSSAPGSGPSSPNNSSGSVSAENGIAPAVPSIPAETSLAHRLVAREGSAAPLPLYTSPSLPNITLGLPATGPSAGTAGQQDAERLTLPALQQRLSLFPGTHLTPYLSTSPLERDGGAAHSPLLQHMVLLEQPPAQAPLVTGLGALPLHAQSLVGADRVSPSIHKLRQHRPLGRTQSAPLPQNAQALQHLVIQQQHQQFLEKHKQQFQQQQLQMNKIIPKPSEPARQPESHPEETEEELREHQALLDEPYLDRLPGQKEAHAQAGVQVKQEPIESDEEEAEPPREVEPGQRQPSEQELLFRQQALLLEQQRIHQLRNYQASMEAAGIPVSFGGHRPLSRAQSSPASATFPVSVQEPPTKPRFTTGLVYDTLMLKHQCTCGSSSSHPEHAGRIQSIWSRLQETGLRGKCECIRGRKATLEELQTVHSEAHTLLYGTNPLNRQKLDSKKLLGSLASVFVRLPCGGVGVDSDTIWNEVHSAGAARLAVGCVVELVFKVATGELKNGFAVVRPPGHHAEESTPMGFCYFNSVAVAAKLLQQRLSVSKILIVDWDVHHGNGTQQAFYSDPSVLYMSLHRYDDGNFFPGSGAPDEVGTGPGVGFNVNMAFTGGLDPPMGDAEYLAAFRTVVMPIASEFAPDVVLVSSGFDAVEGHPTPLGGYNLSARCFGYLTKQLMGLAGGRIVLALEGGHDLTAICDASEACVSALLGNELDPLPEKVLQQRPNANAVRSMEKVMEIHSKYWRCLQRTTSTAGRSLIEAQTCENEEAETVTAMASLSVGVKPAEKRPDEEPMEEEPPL

With `O=C(NC1(CN2CC3CCC(C3)C2)CC1)c1ccc(-c2noc(C(F)(F)F)n2)cc1`, the IC50 was determined as 330 nM.

Broadly, the IC50 is the midpoint of a concentration-inhibition curve. Low values mean inhibition by little substance, high ones a need for much substance.
